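Grown in 96-well plates, cells were treated for 48 hours with each compound at five concentrations. Insufficient inhibition: endpoint recorded as highest concentration tested. GI50 = concentration required for 50% inhibition of growth.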 Activity calls are given as the source filed them. Rule as the data show it: active = GI50 up to about 1.1 µM and inactive = higher.
Experiments:
Assay in all cases: NCI-60 cell line screen, 48 h
SF-295 = system: SF-295
UO-31 = system: UO-31
CCRF-CEM = system: CCRF-CEM
NCI-H226 = system: NCI-H226
MOLT-4 = system: MOLT-4
HOP-92 = system: HOP-92
RXF 393 = system: RXF 393
SNB-19 = system: SNB-19
786-0 = system: 786-0
COLO 205 = system: COLO 205
SW-620 = system: SW-620
OVCAR-4 = system: OVCAR-4
SK-OV-3 = system: SK-OV-3
HOP-62 = system: HOP-62
K562 = system: K562
UACC-257 = system: UACC-257
HCT-15 = system: HCT-15
MCF7 = system: MCF7
A498 = system: A498
DU-145 = system: DU-145

Row | Structure (SMILES) | GI50 (SF-295) | GI50 (UO-31) | GI50 (CCRF-CEM) | GI50 (NCI-H226) | GI50 (MOLT-4) | GI50 (HOP-92) | GI50 (RXF 393) | GI50 (SNB-19) | GI50 (786-0) | GI50 (COLO 205) | GI50 (SW-620) | GI50 (OVCAR-4) | GI50 (SK-OV-3) | GI50 (HOP-62) | GI50 (K562) | GI50 (UACC-257) | GI50 (HCT-15) | GI50 (MCF7) | GI50 (A498) | GI50 (DU-145)
1 | CCCC(=O)Nc1cc(/C=C/C(=O)N2CC(CCl)c3c2cc(O)c2[nH]cc(C)c32)n(C)c1 (stereo not given) | < 2.5e-05 µM (active) | < 2.5e-05 µM (active) | < 0.025 nM (active) | < 2.5e-05 µM (active) | < 2.5e-05 µM (active) | < 2.5e-05 µM (active) | < 2.5e-05 µM (active) | < 2.5e-05 µM (active) | < 2.5e-05 µM (active) | < 2.5e-05 µM (active) | < 2.5e-05 µM (active) | < 2.5e-05 µM (active) | < 2.5e-05 µM (active) | < 2.5e-05 µM (active) | 3.79e-05 µM (active) | < 2.5e-05 µM (active) | 0.000117 µM | < 2.5e-05 µM (active) | < 2.5e-05 µM (active) | < 2.5e-05 µM (active)
2 | COc1ccc(/N=C/C=C/Nc2ccc(OC)cc2)cc1 | 7.98 µM (inactive) | 5.64 µM (inactive) | 6280 nM (inactive) | 17.5 µM (inactive) | 4.51 µM (inactive) | 15.3 µM (inactive) | 7.67 µM (inactive) | 3.43 µM (inactive) | 4 µM (inactive) | 3.99 µM (inactive) | 2.69 µM (inactive) | 5.24 µM (inactive) | 19.7 µM (inactive) | 5.78 µM (inactive) | 8.13 µM (inactive) | 7.35 µM (inactive) | 4.65 µM | 4.75 µM (inactive) | 14 µM (inactive) | 18.7 µM (inactive)
3 | Oc1cc(O)c2c(c1)OC(c1ccc(O)c(O)c1)C(OC1(c3cc(O)c(O)c(O)c3)Oc3cc(O)cc(O)c3C(O)C1O)C2 (stereo not given) | 33.1 µM (inactive) | 18 µM (inactive) | 15100 nM (inactive) | 21.1 µM (inactive) | 23.5 µM (inactive) | 29.6 µM (inactive) | 73.5 µM (inactive) | 55.1 µM (inactive) | 25.7 µM (inactive) | 31.8 µM (inactive) | 24.8 µM (inactive) | 26.4 µM (inactive) | > 65.5 µM (inactive) | 24 µM (inactive) | 21.1 µM (inactive) | 37.4 µM (inactive) | 36 µM | 19.6 µM (inactive) | > 34.1 µM (inactive) | > 49 µM (inactive)
4 | CC/C(Cl)=N\OC(=O)Nc1ccc(F)c(Cl)c1 | 18.2 µM (inactive) | 18.3 µM (inactive) | 2040 nM (inactive) | 24.4 µM (inactive) | 1.48 µM (inactive) | 4.38 µM (inactive) | 12.1 µM (inactive) | 14.4 µM (inactive) | 7.1 µM (inactive) | 2.82 µM (inactive) | 2.55 µM (inactive) | 14.5 µM (inactive) | 18.5 µM (inactive) | 19 µM (inactive) | 1.84 µM (inactive) | 17.3 µM (inactive) | 15.2 µM | 7.1 µM (inactive) | 16.2 µM (inactive) | 19.7 µM (inactive)
5 | Clc1ccc(CCNC2(c3cc4ccccc4s3)CCCCC2)cc1Cl | 28.7 µM (inactive) | 16.6 µM (inactive) | 12900 nM (inactive) | 17.3 µM (inactive) | 13.8 µM (inactive) | 3.84 µM (inactive) | 17.7 µM (inactive) | 30.5 µM (inactive) | 18.1 µM (inactive) | 17.8 µM (inactive) | 34.7 µM (inactive) | 33.3 µM (inactive) | 29.6 µM (inactive) | 28.2 µM (inactive) | 15.5 µM (inactive) | 19 µM (inactive) | 15.3 µM | 17 µM (inactive) | 19.1 µM (inactive) | 32.9 µM (inactive)
6 | CCOP(=O)(OCC)C(=C1C=C(C(C)(C)C)C(=O)C(C(C)(C)C)=C1)P(=O)(OCC)OCC | > 10 µM (inactive) | > 10 µM (inactive) | 1140 nM (inactive) | > 10 µM (inactive) | 2.89 µM (inactive) | 2.39 µM (inactive) | 4.97 µM (inactive) | > 10 µM (inactive) | > 4.09 µM (inactive) | 1.98 µM (inactive) | 1.89 µM (inactive) | 1.87 µM (inactive) | > 10 µM (inactive) | > 10 µM (inactive) | > 4.8 µM (inactive) | > 8.15 µM (inactive) | 3.1 µM | > 6.84 µM (inactive) | > 10 µM (inactive) | > 10 µM (inactive)
7 | COC(=O)c1cc2c(cc1Cl)Sc1nnc(Nc3ccccc3)n1S2(=O)=O | 3.78 µM (inactive) | 2.48 µM (inactive) | 2300 nM (inactive) | 2.45 µM (inactive) | 2.47 µM (inactive) | 1.42 µM (inactive) | 2.21 µM (inactive) | 2.28 µM (inactive) | 4.18 µM (inactive) | 6.52 µM (inactive) | 3.39 µM (inactive) | 3.37 µM (inactive) | 6.75 µM (inactive) | 2.15 µM (inactive) | 3.41 µM (inactive) | 7.66 µM (inactive) | 2.34 µM | 2.86 µM (inactive) | 5.55 µM (inactive) | 1.66 µM (inactive)
8 | Cc1nc2ccccc2n1CCc1nc2ccccc2s1 | 8.49 µM (inactive) | 1.93 µM (inactive) | 14000 nM (inactive) | 0.857 µM (active) | 12.9 µM (inactive) | 32.9 µM (inactive) | 50 µM (inactive) | > 100 µM (inactive) | 42.7 µM (inactive) | 26.9 µM (inactive) | 68.9 µM (inactive) | 42.3 µM (inactive) | > 100 µM (inactive) | > 100 µM (inactive) | 11 µM (inactive) | 9.95 µM (inactive) | 87.7 µM | 16.6 µM (inactive) | 14.8 µM (inactive) | 70.5 µM (inactive)
9 | CCc1nc(N)nc(N)c1-c1ccc(Cc2ccccc2)c([N+](=O)[O-])c1 | 0.0116 µM (active) | 0.124 µM (active) | < 10 nM (active) | 27.6 µM (inactive) | < 0.0127 µM (active) | 1.17 µM (inactive) | 24.5 µM (inactive) | 1.51 µM (inactive) | < 0.01 µM (active) | 0.561 µM (active) | < 0.01 µM (active) | 16.6 µM (inactive) | 7.87 µM (inactive) | 0.173 µM (active) | < 0.01 µM (active) | 23.6 µM (inactive) | < 0.01 µM | 0.0484 µM (active) | 3.05 µM (inactive) | 0.0585 µM (active)
10 | Cc1ccc(/C=C2\CN(C)CC3C2=NN(c2ccccc2)C3c2ccc(C)cc2)cc1 (stereo not given) | > 100 µM (inactive) | > 100 µM (inactive) | 29000 nM (inactive) | > 100 µM (inactive) | 36.4 µM (inactive) | > 100 µM (inactive) | 34.4 µM (inactive) | 74.6 µM (inactive) | > 100 µM (inactive) | > 100 µM (inactive) | > 100 µM (inactive) | > 100 µM (inactive) | 63.8 µM (inactive) | > 100 µM (inactive) | 46.7 µM (inactive) | > 100 µM (inactive) | > 100 µM | > 100 µM (inactive) | 35.3 µM (inactive) | > 100 µM (inactive)
11 | O=C1C(Cl)=C(Oc2ccc([N+](=O)[O-])cc2)C(=O)c2c(O)ccc(O)c21 | > 100 µM (inactive) | > 100 µM (inactive) | 2120 nM (inactive) | > 100 µM (inactive) | 5.85 µM (inactive) | 28.3 µM (inactive) | 23.1 µM (inactive) | > 100 µM (inactive) | 67.9 µM (inactive) | 19.9 µM (inactive) | 30.2 µM (inactive) | 51.8 µM (inactive) | > 100 µM (inactive) | > 100 µM (inactive) | 13.3 µM (inactive) | > 100 µM (inactive) | 25.6 µM | 46.1 µM (inactive) | > 100 µM (inactive) | > 100 µM (inactive)

Reference: ChEMBL document CHEMBL1201862, “PubChem BioAssay data set” (2004)
